Results reported in patent publication US6908931B2, “Tetrahydroisoquinoline derivatives as melatonin MT2 antagonists” (Bristol-Myers Squibb Company, priority 2003, dated 2005).

Molecular target: T1, human MT2 receptor (Homo sapiens, UniProt P49286)
T1 construct: melatonin MT1 and MT2 receptors cDNA were individually subcloned into pcDNA3 and introduced into NIH-3T3 cells using Lipofectamine; expressed in transfected cells
T1 sequence (P49286 1-362): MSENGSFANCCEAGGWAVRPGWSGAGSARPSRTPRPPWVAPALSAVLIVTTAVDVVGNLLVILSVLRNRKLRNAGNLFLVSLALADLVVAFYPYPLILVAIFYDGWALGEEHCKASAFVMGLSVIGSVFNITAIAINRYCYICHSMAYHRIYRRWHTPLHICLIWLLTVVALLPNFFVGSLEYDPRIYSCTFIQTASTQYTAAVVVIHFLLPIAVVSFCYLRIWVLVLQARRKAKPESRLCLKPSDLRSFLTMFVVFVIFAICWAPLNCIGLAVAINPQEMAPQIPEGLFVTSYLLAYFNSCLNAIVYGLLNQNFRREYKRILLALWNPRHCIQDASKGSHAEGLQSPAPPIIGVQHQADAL
Test: Melatonin receptor binding assay (MT2), 2-[125I]-iodomelatonin
Conditions: not given
Method: Melatonin receptor binding assay.
Membrane homogenates: melatonin MT1 and MT2 receptors cDNA were individually subcloned into pcDNA3 and introduced into NIH-3T3 cells using Lipofectamine. […] For preparing membrane homogenates, pellets are thawed on ice, and re-suspended in TME buffer in the presence of 10 μg/ml aprotinin and leupeptin, and 100 μM phenylmethylsulfonylfluoride. The cells were then homogenized using a dounce homogenizer, and centrifuged. The resulting pellet was re-suspended with dounce homogenizer in TME (supplemented with the above protease inhibitors) and frozen. On the day of assay, a small aliquot was thawed on ice and re-suspended in the ice cold TME (1:50-1:100 v/v) and held on ice until assayed. Incubation is at 37° C. for 1 hour. Reaction is terminated by filtration. Filters were washed 3 times.

Row | SMILES | IC50
1 | O=C(OCc1ccccc1)N1CCc2cc3c(cc2C1CCc1ccc(F)cc1)OCO3 (centres unmarked) [Example 100] | 100 to 1000 nM

Same assay, conditions: membrane homogenates of NIH-3T3 cells expressing MT2; 2-[125I]-iodomelatonin 0.2 nM; 37° C., 1 hour; read-out: MT2 IC50

Row | SMILES | IC50
2 | O=C(C1CC1)N1CCc2cc3c(cc2C1CCc1ccc(F)cc1)OCO3 (centres unmarked) [Example 95] | < 100 nM
3 | COc1ccc2c(c1)C(CC(c1ccccc1)c1ccccc1)N(C(=O)c1ccc(C)cc1)CC2 (centres unmarked) [Example 82] | 100 to 1000 nM
4 | COc1ccc2c(c1)CCN(C(C)=O)C2CC(c1ccccc1)c1ccccc1 (centres unmarked) [Example 17] | 100 to 1000 nM
5 | COc1ccc(C(=O)N2CCc3cc(OC)c(OC)cc3C2CCc2ccccc2)cc1 (centres unmarked) [Example 64] | < 100 nM
6 | CC(=O)N1CCc2cc(F)ccc2C1CC(c1ccccc1)c1ccccc1 (centres unmarked) [Example 28] | 100 to 1000 nM
7 | COc1cc2c(cc1Br)CCN(C(=O)c1ccco1)C2CC(c1ccccc1)c1ccccc1 (centres unmarked) [Example 30] | 100 to 1000 nM
8 | COc1cc2c(cc1OC)C(CCc1ccccc1)N(C(=O)C1CCCCC1)CC2 (centres unmarked) [Example 58] | 100 to 1000 nM
9 | COc1cc2c(cc1OC)C(CCc1ccccc1)N(C(=O)c1cc(C(F)(F)F)cc(C(F)(F)F)c1)CC2 (centres unmarked) [Example 69] | 100 to 1000 nM
10 | COc1ccc(C(=O)N2CCc3cc4c(cc3C2CCc2ccc(Cl)cc2)OCO4)cc1 (centres unmarked) [Example 141] | 100 to 1000 nM
11 | COc1ccc2c(c1)C(CC(c1ccccc1)c1ccccc1)N(C(=O)c1cc(C(F)(F)F)cc(C(F)(F)F)c1)CC2 (centres unmarked) [Example 83] | 100 to 1000 nM
12 | O=C(c1ccno1)N1CCc2cc3c(cc2C1CCc1ccc(F)cc1)OCO3 (centres unmarked) [Example 103] | < 100 nM
13 | CCCC(=O)N1CCc2cc3c(cc2C1CCc1ccc(Cl)cc1)OCO3 (centres unmarked) [Example 144] | < 100 nM
14 | CCCCCC(=O)N1CCc2cc(OC)c(OC)cc2C1CCc1ccccc1 (centres unmarked) [Example 60] | 100 to 1000 nM
15 | COCC(=O)N1CCc2ccc(OC)cc2C1CCc1ccc(F)cc1 (centres unmarked) [Example 110] | < 100 nM
16 | CCC(=O)N1CCc2cc3c(cc2C1CCc1ccc(F)cc1)OCO3 (centres unmarked) [Example 105] | < 100 nM
17 | COc1cc2c(cc1Br)CCN(C(=O)c1ccc([N+](=O)[O-])cc1)C2CC(c1ccccc1)c1ccccc1 (centres unmarked) [Example 38] | 100 to 1000 nM
18 | O=C(C=Cc1ccccc1)N1CCc2cc3c(cc2C1CCc1ccc(F)cc1)OCO3 (centres unmarked) [Example 108] | 100 to 1000 nM
19 | COc1cccc2c1CCN(C(C)=O)C2CC(c1ccccc1)c1ccccc1 (centres unmarked) [Example 29] | 100 to 1000 nM
20 | CCCCCCC(=O)N1CCc2cc(OC)c(OC)cc2C1CCc1ccccc1 (centres unmarked) [Example 61] | 100 to 1000 nM
21 | CCCCCC(=O)N1CCc2cc(Br)c(OC)cc2C1CC(c1ccccc1)c1ccccc1 (centres unmarked) [Example 34] | 100 to 1000 nM
22 | COc1ccc(C(=O)N2CCc3ccc(OC)cc3C2CCc2ccc(F)cc2)cc1 (centres unmarked) [Example 111] | 100 to 1000 nM
23 | COc1ccc2c(c1)C(CCc1ccc(F)cc1)N(C(=O)C1CC1)CC2 (centres unmarked) [Example 109] | < 100 nM
24 | COc1cc2c(cc1OC)C(CC(C)c1ccccc1)N(C(C)=O)CC2 (centres unmarked) [Example 18] | 100 to 1000 nM
25 | COCC(=O)N1CCc2cc3c(cc2C1CCc1ccc(F)cc1)OCO3 (centres unmarked) [Example 96] | < 100 nM

Row | SMILES | IC50
26 | CCC(=O)N1CCc2cc3c(cc2C1CCc1ccc(Cl)cc1)OCO3 (centres unmarked) [Example 147] | < 100 nM
27 | CCNC(=O)N1CCc2cc(OC)c(OC)cc2C1CCc1cccc(OC)c1 (centres unmarked) [Example 88] | < 100 nM
28 | COc1cc2c(cc1OC)C(CC(c1ccccc1)c1ccccc1)N(S(C)(=O)=O)CC2 (centres unmarked) [Example 12] | < 100 nM
29 | O=C(CCl)N1CCc2cc3c(cc2C1CCc1ccc(F)cc1)OCO3 (centres unmarked) [Example 98] | < 100 nM
30 | O=C(C=Cc1ccccc1)N1CCc2cc3c(cc2C1CCc1ccc(Cl)cc1)OCO3 (centres unmarked) [Example 150] | 100 to 1000 nM
31 | O=C(CCl)N1CCc2cc3c(cc2C1CCc1ccc(Cl)cc1)OCO3 (centres unmarked) [Example 142] | < 100 nM
32 | COc1cc2c(cc1OC)C(CCc1ccccc1)N(C=O)CC2 (centres unmarked) [Example 15] | < 100 nM
33 | COC(=O)N1CCc2cc3c(cc2C1CCc1ccc(F)cc1)OCC3 (centres unmarked) [Example 129] | 100 to 1000 nM
34 | COC(=O)N1CCc2ccc(OC)cc2C1CCc1ccc(F)cc1 (centres unmarked) [Example 113] | < 100 nM
35 | COc1ccc(C(CC2c3cc(OC)c(OC)cc3CCN2C(C)=O)c2ccc(OC)cc2)cc1 (centres unmarked) [Example 25] | 100 to 1000 nM
36 | O=C(c1ccccc1)N1CCc2cc3c(cc2C1CCc1ccc(Cl)cc1)OCO3 (centres unmarked) [Example 137] | 100 to 1000 nM
37 | COc1cc2c(cc1Br)CCN(C(=O)c1ccc(C(F)(F)F)cc1)C2CC(c1ccccc1)c1ccccc1 (centres unmarked) [Example 40] | 100 to 1000 nM
38 | COc1cc2c(cc1OC)C(CCc1ccccc1)N(C(=O)CC(C)(C)C)CC2 (centres unmarked) [Example 63] | 100 to 1000 nM
39 | COc1cc2c(cc1OC)C(CCc1ccccc1)N(C(N)=O)CC2 (centres unmarked) [Example 16] | 100 to 1000 nM
40 | COc1cc2c(cc1OC)C(CC(c1ccccc1)c1ccccc1)N(C(=O)c1ccco1)CC2 (centres unmarked) [Example 41] | 100 to 1000 nM
41 | COc1cc2c(cc1OC)C(CC(c1ccccc1)c1ccc(Cl)cc1)N(C(C)=O)CC2 (centres unmarked) [Example 84] | < 100 nM
42 | CC(C)(C)CC(=O)N1CCc2cc3c(cc2C1CCc1ccc(F)cc1)OCO3 (centres unmarked) [Example 107] | 100 to 1000 nM
43 | COc1cc2c(cc1OC)C(CC(c1ccccc1)c1ccccc1)N(C(=O)C1CCC1)CC2 (centres unmarked) [Example 43] | 100 to 1000 nM
44 | CCCCCCC(=O)N1CCc2cc(OC)c(OC)cc2C1CC(c1ccccc1)c1ccccc1 (centres unmarked) [Example 45] | 100 to 1000 nM
45 | COc1cc2c(cc1OC)C(CC(c1ccccc1)c1ccccc1)N(C(C)=O)CC2 (centres unmarked) [Example 1, N-acetyl 1-(2,2-diphenyleth-1-yl)-6,7-dimethoxy-1,2,3,4-tetrahydroisoquinoline] | < 100 nM
46 | COc1cc2c(cc1OC)C(CCc1ccccc1)N(C(=O)c1cccc(C)c1)CC2 (centres unmarked) [Example 67] | 100 to 1000 nM
47 | COc1ccc2c(c1)C(CC(c1ccccc1)c1ccccc1)N(C(C)=O)CC2 (centres unmarked) [Example 19] | < 100 nM
48 | COc1cc2c(cc1OC)C(CC(c1ccc(Cl)cc1)c1ccc(Cl)cc1)N(C(C)=O)CC2 (centres unmarked) [Example 85] | < 100 nM
49 | COC(=O)N1CCc2cc(OC)c(OC)cc2C1CC(c1ccccc1)c1ccccc1 (centres unmarked) [Example 10, N-carbomethoxy 1-(2,2-diphenyleth-1-yl)-6,7-dimethoxy-1,2,3,4-tetrahydroisoquinoline] | < 100 nM

Row | SMILES | IC50
50 | COc1ccc2c(c1)C(CC(c1ccccc1)c1ccccc1)N(C(=O)c1ccc([N+](=O)[O-])cc1)CC2 (centres unmarked) [Example 81] | 100 to 1000 nM
51 | COc1cccc(CCC2c3cc(OC)c(OC)cc3CCN2C(C)=O)c1 (centres unmarked) [Example 86] | < 100 nM
52 | CC(C)COC(=O)N1CCc2cc3c(cc2C1CCc1ccc(F)cc1)OCO3 (centres unmarked) [Example 106] | 100 to 1000 nM
53 | COc1cc2c(cc1OC)C(CCc1ccccc1)N(C(=O)COc1ccccc1)CC2 (centres unmarked) [Example 56] | 100 to 1000 nM
54 | CC(C)(C)CC(=O)N1CCc2cc3c(cc2C1CCc1ccc(Cl)cc1)OCO3 (centres unmarked) [Example 149] | 100 to 1000 nM
55 | COc1ccc2c(c1)C(CCc1ccc(F)cc1)N(C(=O)OCC(C)C)CC2 (centres unmarked) [Example 120] | 100 to 1000 nM
56 | CCC(=O)N1CCc2ccc(OC)cc2C1CCc1ccc(F)cc1 (centres unmarked) [Example 119] | < 100 nM
57 | CCCC(=O)N1CCc2cc3c(cc2C1CCc1ccc(F)cc1)OCO3 (centres unmarked) [Example 101] | < 100 nM
58 | COc1cc2c(cc1OC)C(CC(c1ccccc1)c1ccccc1)N(C(=O)C(F)(F)F)CC2 (centres unmarked) [Example 7, N-trifluoroacetyl 1-(2,2-diphenyleth-1-yl)-6,7-dimethoxy-1,2,3,4-tetrahydroisoquinoline] | 100 to 1000 nM
59 | COc1cc2c(cc1OC)C(CCc1ccccc1)N(C(=O)c1ccc(C(F)(F)F)cc1)CC2 (centres unmarked) [Example 70] | 100 to 1000 nM
60 | CC(=O)N1CCc2cc3c(cc2C1CCc1ccc(Cl)cc1)OCO3 (centres unmarked) [Example 138] | 100 to 1000 nM
61 | CCCC(=O)N1CCc2cc(OC)c(OC)cc2C1CC(c1ccccc1)c1ccccc1 (centres unmarked) [Example 4, N-butyryl 1-(2,2-diphenyleth-1-yl)-6,7-dimethoxy-1,2,3,4-tetrahydroisoquinoline] | < 100 nM
62 | CCC(=O)N1CCc2cc(OC)c(OC)cc2C1CC(c1ccccc1)c1ccccc1 (centres unmarked) [Example 3, N-propionyl 1-(2,2-diphenyleth-1-yl)-6,7-dimethoxy-1,2,3,4-tetrahydroisoquinoline] | < 100 nM
63 | COc1ccc2c(c1)C(CCc1ccc(F)cc1)N(C(C)=O)CC2 (centres unmarked) [Example 90] | < 100 nM
64 | CC(=O)OCC(=O)N1CCc2cc3c(cc2C1CCc1ccc(F)cc1)OCC3 (centres unmarked) [Example 133] | 100 to 1000 nM
65 | COc1cc2c(cc1Br)CCN(C(C)=O)C2CC(c1ccccc1)c1ccccc1 (centres unmarked) [Example 22] | < 100 nM
66 | COc1cc2c(cc1OC)C(CC(c1ccccc1)c1ccccc1)N(C(=O)c1cccs1)CC2 (centres unmarked) [Example 13] | 100 to 1000 nM
67 | COc1ccc2c(c1)C(CCc1ccc(F)cc1)N(C(=O)c1ccno1)CC2 (centres unmarked) [Example 117] | < 100 nM
68 | COc1ccc2c(c1)C(CCc1ccc(F)cc1)N(C(=O)CC(C)(C)C)CC2 (centres unmarked) [Example 121] | 100 to 1000 nM
69 | COc1cc2c(cc1OC)C(CC(c1ccccc1)c1ccccc1)N(C(=O)c1ccccc1OC)CC2 (centres unmarked) [Example 42] | 100 to 1000 nM
70 | COc1cc2c(cc1OC)C(CCc1ccccc1)N(C(=O)C(C)C)CC2 (centres unmarked) [Example 59] | 100 to 1000 nM
71 | COCC(=O)N1CCc2cc3c(cc2C1CCc1ccc(Cl)cc1)OCO3 (centres unmarked) [Example 140] | < 100 nM
